According to patent US12709592B2, “Salts of treprostinil” (United Therapeutics Corporation, priority 2013, dated 2026):
Counter-ions that a name gives are not always drawn.

assay: TGA data of UT-15 salts (thermal degradation); assay type: physicochemical; details: thermogravimetric analysis of the isolated solid salt; temperature beyond which weight loss due to degradation occurs
Excerpt: For all new UT-15 salts, analytical data: IH-NMR, 13C_NMR, IR, purity by HPLC, DSC data, TGA data, water contents, specific rotation were collected.

Q: With `CCCCC[C@H](O)CC[C@@H]1[C@H]2Cc3cccc(OCC(=O)O)c3C[C@H]2C[C@H]1O` [N-Methylglucamine Salt] as the compound, how does the “TGA: loss due to degradation beyond” value read?
A: The value was “degradation beyond 150 °C”.

Q: For `CCCCC[C@H](O)CC[C@@H]1[C@H]2Cc3cccc(OCC(=O)[O-])c3C[C@H]2C[C@H]1O.[K+]` [Potassium Salt], which “TGA: loss due to degradation beyond” value is on record?
A: Its value is “degradation beyond 250 °C”.

Q: Which “TGA: loss due to degradation beyond” value does the source give for `CCCCC[C@H](O)CC[C@@H]1[C@H]2Cc3cccc(OCC(=O)O)c3C[C@H]2C[C@H]1O` [L-Lysine Salt] here?
A: The value was “degradation beyond 200 °C”.

Q: With `CCCCC[C@H](O)CC[C@@H]1[C@H]2Cc3cccc(OCC(=O)O)c3C[C@H]2C[C@H]1O` [Arginine Salt] as the compound, how does the “TGA: loss due to degradation beyond” value read?
A: Its value is “Moisture = 2.07, degradation beyond 200 °C”.

Q: Which “TGA: loss due to degradation beyond” value does the source give for `CCCCC[C@H](O)CC[C@@H]1[C@H]2Cc3cccc(OCC(=O)O)c3C[C@H]2C[C@H]1O` [Choline Salt] here?
A: The value was “degradation beyond 150 °C”.

Q: With `CCCCC[C@H](O)CC[C@@H]1[C@H]2Cc3cccc(OCC(=O)[O][MgH])c3C[C@H]2C[C@H]1O` [Mg Salt] as the compound, how does the “TGA: loss due to degradation beyond” value read?
A: The value was “degradation beyond 250 °C”.
